Drawing on patent US12024531B2, “Immunoproteasome inhibitors” (Principia Biopharma Inc., priority 2017, dated 2024), this text covers IC50 for 26 molecules.

Holding throughout (format): biochemical
The target of experiment [1] is immunoproteasome LMP7/B5i subunit (Homo sapiens, UniProt P28062). Nature of the experiment: Caliper-based proteasome enzymatic activity assay, LMP7. The following applies: human recombinant immunoproteasome 0.3 nM, FAM peptide substrate 1 μM, rt 3 h.
Experiment [2] concerns the target constitutive proteasome β5c subunit (Homo sapiens, UniProt P28074). Nature of the experiment: Caliper-based proteasome enzymatic activity assay, β5c. Particulars: human recombinant constitutive proteasome 0.3 nM, FAM peptide substrate 1 μM, rt 3 h.
The target in experiment [3] is immunoproteasome LMP2 subunit (Homo sapiens, UniProt P28065). Nature of the experiment: Caliper-based proteasome enzymatic activity assay, LMP2. Particulars: human recombinant immunoproteasome 0.3 nM, FAM peptide substrate 1 μM, rt 2 h.

Usually IC50 stands for the concentration that gives 50% inhibition. On to `CC(C)N(C(=O)C(C#N)=Cc1cccc(CCOC(=O)N[C@@H](Cc2ccccc2)B(O)O)c1)C(C)C` (single isomer, unassigned) [Example 74], for which the IC50 in experiment [1] was 27.1 nM; in experiment [2], > 5000 nM; in experiment [3] it was 2750 nM.

For `CC(C)N(C(=O)C(C#N)=Cc1cccc(CCOC(=O)N[C@@H](Cc2ccccc2)B(O)O)c1)C(C)C` (single isomer, unassigned) [Example 75], the 50% inhibitory concentration (IC50) turned out to be 1.4 nM in experiment [1], 3020 nM in experiment [2] and 2520 nM in experiment [3].

Consider `CC(C)(C)NC(=O)C(C#N)=Cc1cccc(CC[C@H](NC(=O)c2cnccn2)C(=O)N[C@@H](Cc2ccccc2)B(O)O)c1` [Example 1, ((R)-1-((S)-4-(3-(3-(tert-butylamino)-2-cyano-3-oxoprop-1-en-1-yl)phenyl)-2-(pyrazine-2-carboxamido)butanamido)-2-phenylethyl)boronic Acid], for which the concentration for half-maximal inhibition (IC50) in experiment [1] was determined as 6 nM; in experiment [2], 32 nM.

Consider `CC(C)(C)NC(=O)C(C#N)=Cc1cccc(CCC(=O)N[C@@H](Cc2ccccc2)B(O)O)c1` [Example 3, (R)-(1-(3-(3-(3-(tert-butylamino)-2-cyano-3-oxoprop-1-en-1-yl)phenyl)propanamido)-2-phenylethyl)boronic Acid], for which the values for the IC50 in experiment [1] and in experiment [2] were 10 nM and 120 nM, respectively.

For `CC(C)(C)NC(=O)C(C#N)=Cc1cccc(CC[C@H](NC(=O)c2cc(Cl)ccc2Cl)C(=O)N[C@@H](Cc2ccccc2)B(O)O)c1` [Example 4, (R)-1-((S)-4-(3-(3-(tert-butylamino)-2-cyano-3-oxoprop-1-enyl)phenyl)-2-(2,5-dichlorobenzamido)butanamido)-2-phenylethylboronic Acid], the values for the half-inhibitory concentration (IC50) in experiment [1], in experiment [2] and in experiment [3] were 1 nM, 7 nM and 16 nM, respectively.

For `CN(C)C(=O)C(C#N)=Cc1cccc(OCCC(=O)N[C@@H](Cc2ccccc2)B(O)O)c1` [Example 5, (R)-1-(3-(3-(2-cyano-3-(dimethylamino)-3-oxoprop-1-enyl)phenoxy)propanamido)-2-phenylethylboronic Acid], the IC50 in experiment [1] worked out at 3 nM; in experiment [2], 95 nM; in experiment [3] it was 140 nM.

Take `CCN(CC)C(=O)C(C#N)=Cc1cccc(OCCC(=O)N[C@@H](Cc2ccccc2)B(O)O)c1` [Example 7, (R)-1-(3-(3-(2-cyano-3-(diethylamino)-3-oxoprop-1-enyl)phenoxy)propanamido)-2-phenylethylboronic Acid]: the IC50 in experiment [1] worked out at 5 nM; in experiment [2] it was 60 nM; in experiment [3], 500 nM.

`CCc1cccc(C[C@H](NC(=O)CCOc2cccc(C=C(C#N)C(=O)NC(C)(C)C)c2)B(O)O)c1` [Example 8, (R)-(1-(3-(3-(3-(tert-butylamino)-2-cyano-3-oxoprop-1-en-1-yl)phenoxy)propanamido)-2-(3-ethylphenyl)ethyl)boronic Acid]: the IC50 was determined as 16 nM in experiment [1] and 420 nM in experiment [2].

With `N#CC(=Cc1cccc(OCCC(=O)N[C@@H](Cc2ccccc2)B(O)O)c1)C(=O)N1CCOCC1` [Example 9, (R)-1-(3-(3-(2-cyano-3-morpholino-3-oxoprop-1-enyl)phenoxy)propanamido)-2-phenylethylboronic Acid], the results for the half-inhibitory concentration (IC50) in experiment [1], in experiment [2] and in experiment [3] were 8 nM, 100 nM and 820 nM, respectively.

`CC(C)NC(=O)C(C#N)=Cc1cccc(OCCC(=O)N[C@@H](Cc2ccccc2)B(O)O)c1` [Example 12, (R)-1-(3-(3-(2-cyano-3-(isopropylamino)-3-oxoprop-1-enyl)phenoxy)propanamido)-2-phenylethylboronic Acid]: the 50% inhibitory concentration (IC50) is 4 nM in experiment [1] and 100 nM in experiment [2].

Regarding `CC(C)(C)C[C@H](NC(=O)CCOc1cccc(C=C(C#N)C(=O)NC(C)(C)C)c1)B(O)O` [Example 13, (R)-1-(3-(3-(3-(tert-butylamino)-2-cyano-3-oxoprop-1-enyl)phenoxy)propanamido)-3,3-dimethylbutylboronic Acid], the half-maximal inhibitory concentration (IC50) in experiment [1] was determined as 149 nM; in experiment [2], 3930 nM.

Regarding `CC(C)(C)NC(=O)C(C#N)=Cc1ccc(F)c(OCCC(=O)N[C@@H](Cc2ccccc2)B(O)O)c1` [Example 18, (R)-(1-(3-(5-(3-(tert-butylamino)-2-cyano-3-oxoprop-1-en-1-yl)-2-fluorophenoxy)propanamido)-2-phenylethyl)boronic Acid], the IC50 in experiment [1] came to 15 nM; in experiment [2], 85 nM.

With `CCN(C(=O)C(C#N)=Cc1cccc(CCOC(=O)N[C@@H](Cc2coc3ccccc23)B(O)O)c1)C1CCOCC1` [Example 95, (R)-(2-(benzofuran-3-yl)-1-(((3-(2-cyano-3-(ethyl(tetrahydro-2H-pyran-4-yl)amino)-3-oxoprop-1-en-1-yl)phenethoxy)carbonyl)amino)ethyl)boronic Acid], the IC50 in experiment [1] came out at 1.2 nM; in experiment [2], 87 nM.

Turning to `CCN(CC)C(=O)C(C#N)=Cc1cccc(CCNC(=O)N[C@@H](Cc2coc3ccccc23)B(O)O)c1` [Example 96, (R)-(2-(benzofuran-3-yl)-1-(3-(3-(2-cyano-3-(diethylamino)-3-oxoprop-1-en-1-yl)phenethyl)ureido)ethyl)boronic Acid], the figures for the concentration for half-maximal inhibition (IC50) in experiment [1] and in experiment [2] were 2.1 nM and 328 nM, respectively.

For the molecule `CCN(CC)C(=O)C(C#N)=Cc1cc(C#N)cc(CCOC(=O)N[C@@H](Cc2coc3ccccc23)B(O)O)c1` [Example 97, (R)-(2-(benzofuran-3-yl)-1-(((3-cyano-5-(2-cyano-3-(diethylamino)-3-oxoprop-1-en-1-yl)phenethoxy)carbonyl)amino)ethyl)boronic Acid], the IC50 in experiment [1] was found to be 0.7 nM; in experiment [2] it was 43 nM.

In the case of `C[C@@H]1COC[C@@H](C)N1C(=O)C(C#N)=Cc1cccc(CCOC(=O)N[C@@H](Cc2coc3ccccc23)B(O)O)c1` [Example 98, ((R)-2-(benzofuran-3-yl)-1-(((3-(2-cyano-3-((3R,5R)-3,5-dimethylmorpholino)-3-oxoprop-1-en-1-yl)phenethoxy)carbonyl)amino)ethyl)boronic Acid], the IC50 in experiment [1] was determined as 0.5 nM; in experiment [2], 71 nM.

Consider `N#CC(=Cc1cccc(CCOC(=O)N[C@@H](Cc2ccccc2)B(O)O)c1)n1cncn1` [Example 99, (R)-(1-(((3-(2-cyano-2-(1H-1,2,4-triazol-1-yl)vinyl)phenethoxy)carbonyl)amino)-2-phenylethyl)boronic Acid], for which the concentration for half-maximal inhibition (IC50) in experiment [1] came to 1.5 nM; in experiment [2], 1740 nM.

As for `CCN(C(=O)C(C#N)=Cc1cccc(CCNC(=O)N[C@@H](Cc2coc3ccccc23)B(O)O)c1)C1CCOCC1` [Example 100, (R)-(2-(benzofuran-3-yl)-1-(3-(3-(2-cyano-3-(ethyl(tetrahydro-2H-pyran-4-yl)amino)-3-oxoprop-1-en-1-yl)phenethyl)ureido)ethyl)boronic Acid], the IC50 amounted to 5.2 nM in experiment [1] and 1430 nM in experiment [2].

Take `CCN(C(=O)C(C#N)=Cc1cc(C#N)cc(CCOC(=O)N[C@@H](Cc2ccccc2)B(O)O)c1)C1CCOCC1` [Example 102, (R)-(1-(((3-cyano-5-(2-cyano-3-(ethyl(tetrahydro-2H-pyran-4-yl)amino)-3-oxoprop-1-en-1-yl)phenethoxy)carbonyl)amino)-2-phenylethyl)boronic Acid]: the 50% inhibitory concentration (IC50) in experiment [1] turned out to be 2.2 nM; in experiment [2], 1550 nM.

Take `CCN(C(=O)C(C#N)=Cc1cc(C#N)cc(CCOC(=O)N[C@@H](Cc2ccc(C)cc2)B(O)O)c1)C1CCOCC1` [Example 103, (R)-(1-(((3-cyano-5-(2-cyano-3-(ethyl(tetrahydro-2H-pyran-4-yl)amino)-3-oxoprop-1-en-1-yl)phenethoxy)carbonyl)amino)-2-(p-tolyl)ethyl)boronic Acid]: the 50% inhibitory concentration (IC50) came out at 1.4 nM in experiment [1] and 460 nM in experiment [2].

`CCN(CC)C(=O)C(C#N)=Cc1cc(C#N)cc(CCOC(=O)N[C@@H](Cc2ccccc2)B(O)O)c1` [Example 104, (R)-(1-(((3-cyano-5-(2-cyano-3-(diethylamino)-3-oxoprop-1-en-1-yl)phenethoxy)carbonyl)amino)-2-phenylethyl)boronic Acid]: the half-maximal inhibitory concentration (IC50) worked out at 3.3 nM in experiment [1] and 2870 nM in experiment [2].

As for `CCN(C(=O)C(C#N)=Cc1ccc2c(c1)CN(CC(=O)N[C@@H](Cc1coc3ccccc13)B(O)O)CC2)C1CCOCC1` [Example 105, (R)-(2-(benzofuran-3-yl)-1-(2-(7-(2-cyano-3-(ethyl(tetrahydro-2H-pyran-4-yl)amino)-3-oxoprop-1-en-1-yl)-3,4-dihydroisoquinolin-2(1H)-yl)acetamido)ethyl)boronic Acid], the IC50 in experiment [1] came to 1.6 nM; in experiment [2], 21 nM.

As to `N#CC(=Cc1cccc(CCOC(=O)N[C@@H](CCc2ccccc2)B(O)O)c1)n1cncn1` [Example 106, (R)-(1-(((3-(2-cyano-2-(1H-1,2,4-triazol-1-yl)vinyl)phenethoxy)carbonyl)amino)-3-phenylpropyl)boronic Acid], the concentration for half-maximal inhibition (IC50) in experiment [1] is 4.8 nM; in experiment [2] it was > 5000 nM.

Regarding `Cc1ccc(C[C@H](NC(=O)NCCc2cccc(C=C(C#N)n3cncn3)c2)B(O)O)cc1` [Example 107, (R)-(1-(3-(3-(2-cyano-2-(1H-1,2,4-triazol-1-yl)vinyl)phenethyl)ureido)-2-(p-tolyl)ethyl)boronic Acid], the concentration for half-maximal inhibition (IC50) in experiment [1] was 23 nM; in experiment [2], > 5000 nM.

For `CCN(CC)C(=O)C(C#N)=Cc1ccc2c(c1)CN(CC(=O)N[C@@H](Cc1ccc(C)cc1)B(O)O)CC2` [Example 108, (R)-(1-(2-(7-(2-cyano-3-(diethylamino)-3-oxoprop-1-en-1-yl)-3,4-dihydroisoquinolin-2(1H)-yl)acetamido)-2-(p-tolyl)ethyl)boronic Acid], the 50% inhibitory concentration (IC50) in experiment [1] is 35 nM; in experiment [2] it was > 5000 nM.

With `CCN(CC)C(=O)C(C#N)=Cc1ccc2c(c1)CN(CC(=O)N[C@@H](Cc1ccccc1)B(O)O)CC2` [Example 109, (R)-(1-(2-(7-(2-cyano-3-(diethylamino)-3-oxoprop-1-en-1-yl)-3,4-dihydroisoquinolin-2(1H)-yl)acetamido)-2-phenylethyl)boronic Acid], the figures for the IC50 in experiment [1] and in experiment [2] were 7.5 nM and 77 nM, respectively.
